# Results as given in ChEMBL document CHEMBL1201862, “PubChem BioAssay data set” (2004).
#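 Exposure lasted 48 hours, with cells grown in 96-well plates and compounds tested at five concentrations. GI50 marks 50% less growth.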 Active and inactive are the calls of the source. Rule as the data show it: active = GI50 up to about 1.1 µM and inactive = higher.
# What was measured:
# Test in all cases: NCI tumour cell line growth inhibition, 48 h
# [1] = test system: DMS-273
# [2] = test system: DMS-114
# [3] = test system: LOX IMVI
# [4] = test system: ACHN
# [5] = test system: SW-620
# [6] = test system: SF-295
# [7] = test system: HCT-116
# [8] = test system: SNB-19
# [9] = test system: OVCAR-3
# [10] = test system: HCC 2998
# [11] = test system: CAKI-1
# [12] = test system: EKVX
# [13] = test system: OVCAR-4
# [14] = test system: KM12
# [15] = test system: 786-0
# [16] = test system: KM-20L2
# [17] = test system: DLD-1
# [18] = test system: UO-31
# [19] = test system: TK-10
# [20] = test system: OVCAR-8
# [21] = test system: RXF 393
# [22] = test system: SK-MEL-2
# [23] = test system: OVCAR-5
# [24] = test system: SK-MEL-28
# [25] = test system: SF-268
# [26] = test system: K562
# [27] = test system: IGROV-1
# [28] = test system: RXF 631
# [29] = test system: RPMI-8226
# [30] = test system: U-251
# [31] = test system: NCI-H460
# [32] = test system: SK-MEL-5
# [33] = test system: M14
# [34] = test system: SF-539
# [35] = test system: HT-29
# [36] = test system: CCRF-CEM
# [37] = test system: LXFL 529
# [38] = test system: NCI-H226
# [39] = test system: MOLT-4
# [40] = test system: COLO 205
# [41] = test system: A498
# [42] = test system: SNB-75
# [43] = test system: NCI-H23
# [44] = test system: UACC-62
# [45] = test system: UACC-257
# [46] = test system: A549
# [47] = test system: HCT-15
# [48] = test system: SN12C
# [49] = test system: SK-OV-3
# [50] = test system: XF498
# [51] = test system: SNB-78
# [52] = test system: Malme-3M
# [53] = test system: NCI-H522
# [54] = test system: HOP-62
# [55] = test system: M19-MEL
# [56] = test system: HOP-92
# [57] = test system: HL-60
# [58] = test system: HOP-18
structure (smiles),measurement,setting,value
CC(C)(CN1CCCCC1)C(=O)CC(SCCN)c1ccc(Cl)cc1 (stereo unspecified),GI50,[1],1.98 µM (inactive)
same,GI50,[2],1.58 µM (inactive)
same,GI50,[3],2.09 µM (inactive)
same,GI50,[4],2.78 µM (inactive)
same,GI50,[5],1.76 µM (inactive)
same,GI50,[6],3.22 µM (inactive)
same,GI50,[7],2.37 µM (inactive)
same,GI50,[8],1.78 µM (inactive)
same,GI50,[9],1.55 µM (inactive)
same,GI50,[10],1.85 µM (inactive)
same,GI50,[11],1.71 µM (inactive)
same,GI50,[12],1.74 µM (inactive)
same,GI50,[13],3.1 µM (inactive)
same,GI50,[14],1.88 µM (inactive)
same,GI50,[15],1.61 µM (inactive)
same,GI50,[16],1.67 µM (inactive)
same,GI50,[17],1.59 µM (inactive)
same,GI50,[18],3.35 µM (inactive)
same,GI50,[19],2.26 µM (inactive)
same,GI50,[20],2.04 µM (inactive)
same,GI50,[21],1.81 µM (inactive)
same,GI50,[22],1.7 µM (inactive)
same,GI50,[23],3.66 µM (inactive)
same,GI50,[24],3.43 µM (inactive)
same,GI50,[25],2.78 µM (inactive)
same,GI50,[26],1.18 µM (inactive)
same,GI50,[27],2.7 µM (inactive)
same,GI50,[28],3.94 µM (inactive)
same,GI50,[29],1.38 µM (inactive)
same,GI50,[30],3.12 µM (inactive)
same,GI50,[31],2.11 µM (inactive)
same,GI50,[32],1.73 µM (inactive)
same,GI50,[33],1.82 µM (inactive)
same,GI50,[34],1.66 µM (inactive)
same,GI50,[35],1.95 µM (inactive)
same,GI50,[36],1.55 µM (inactive)
same,GI50,[37],1.75 µM (inactive)
same,GI50,[38],3.52 µM (inactive)
same,GI50,[39],1.72 µM (inactive)
same,GI50,[40],1.6 µM (inactive)
same,GI50,[41],2.32 µM (inactive)
same,GI50,[42],1.98 µM (inactive)
same,GI50,[43],1.95 µM (inactive)
same,GI50,[44],1.65 µM (inactive)
same,GI50,[45],2.09 µM (inactive)
same,GI50,[46],2.88 µM (inactive)
same,GI50,[47],1.63 µM
same,GI50,[48],1.49 µM (inactive)
same,GI50,[49],2.6 µM (inactive)
same,GI50,[50],1.71 µM (inactive)
same,GI50,[51],2.56 µM (inactive)
same,GI50,[52],3.1 µM (inactive)
same,GI50,[53],2.18 µM (inactive)
same,GI50,[54],3.78 µM (inactive)
same,GI50,[55],2.28 µM (inactive)
O=P(CN1CCOCC1)(c1ccccc1)c1ccccc1,GI50,[56],> 100 µM (inactive)
same,GI50,[1],> 100 µM (inactive)
same,GI50,[2],> 100 µM (inactive)
same,GI50,[3],> 100 µM (inactive)
same,GI50,[4],> 100 µM (inactive)
same,GI50,[5],> 100 µM (inactive)
same,GI50,[6],> 100 µM (inactive)
same,GI50,[7],> 100 µM (inactive)
same,GI50,[8],> 100 µM (inactive)
same,GI50,[9],> 100 µM (inactive)
same,GI50,[11],> 100 µM (inactive)
same,GI50,[12],> 100 µM (inactive)
same,GI50,[13],> 100 µM (inactive)
same,GI50,[14],> 100 µM (inactive)
same,GI50,[15],> 100 µM (inactive)
same,GI50,[18],> 100 µM (inactive)
same,GI50,[19],> 100 µM (inactive)
same,GI50,[20],> 100 µM (inactive)
same,GI50,[21],> 100 µM (inactive)
same,GI50,[22],> 100 µM (inactive)
same,GI50,[57],> 100 µM (inactive)
same,GI50,[23],> 100 µM (inactive)
same,GI50,[24],> 100 µM (inactive)
same,GI50,[25],> 100 µM (inactive)
same,GI50,[26],> 100 µM (inactive)
same,GI50,[27],> 100 µM (inactive)
same,GI50,[28],> 100 µM (inactive)
same,GI50,[29],> 100 µM (inactive)
same,GI50,[30],> 100 µM (inactive)
same,GI50,[31],> 100 µM (inactive)
same,GI50,[32],> 100 µM (inactive)
same,GI50,[33],> 100 µM (inactive)
same,GI50,[34],> 100 µM (inactive)
same,GI50,[35],> 100 µM (inactive)
same,GI50,[36],> 100 µM (inactive)
same,GI50,[37],> 100 µM (inactive)
same,GI50,[39],> 100 µM (inactive)
same,GI50,[40],> 100 µM (inactive)
same,GI50,[41],> 100 µM (inactive)
same,GI50,[42],> 100 µM (inactive)
same,GI50,[43],> 100 µM (inactive)
same,GI50,[44],> 100 µM (inactive)
same,GI50,[45],> 100 µM (inactive)
same,GI50,[46],> 100 µM (inactive)
same,GI50,[47],> 100 µM
same,GI50,[48],> 100 µM (inactive)
same,GI50,[49],> 100 µM (inactive)
same,GI50,[50],> 100 µM (inactive)
same,GI50,[51],> 100 µM (inactive)
same,GI50,[52],> 100 µM (inactive)
same,GI50,[53],> 100 µM (inactive)
same,GI50,[54],> 100 µM (inactive)
same,GI50,[55],> 100 µM (inactive)
O=S(O)CCCCCSSc1ccc(Cl)cc1,GI50,[3],16.4 µM (inactive)
same,GI50,[7],25.2 µM (inactive)
same,GI50,[8],28 µM (inactive)
same,GI50,[9],15.6 µM (inactive)
same,GI50,[10],25.9 µM (inactive)
same,GI50,[12],39.1 µM (inactive)
same,GI50,[13],28.7 µM (inactive)
same,GI50,[14],20.7 µM (inactive)
same,GI50,[17],21.5 µM (inactive)
same,GI50,[18],12.9 µM (inactive)
same,GI50,[19],23.2 µM (inactive)
same,GI50,[21],13.8 µM (inactive)
same,GI50,[22],15.2 µM (inactive)
same,GI50,[57],27.2 µM (inactive)
same,GI50,[23],21.1 µM (inactive)
same,GI50,[24],21.6 µM (inactive)
same,GI50,[25],10.7 µM (inactive)
same,GI50,[26],> 100 µM (inactive)
same,GI50,[28],18.9 µM (inactive)
same,GI50,[30],10.1 µM (inactive)
same,GI50,[31],36.9 µM (inactive)
same,GI50,[33],22.7 µM (inactive)
same,GI50,[34],16 µM (inactive)
same,GI50,[35],26.6 µM (inactive)
same,GI50,[36],4.49 µM (inactive)
same,GI50,[37],13.7 µM (inactive)
same,GI50,[41],17 µM (inactive)
same,GI50,[42],23.1 µM (inactive)
same,GI50,[43],19.8 µM (inactive)
same,GI50,[45],22.5 µM (inactive)
same,GI50,[48],16 µM (inactive)
same,GI50,[49],56 µM (inactive)
same,GI50,[50],13.7 µM (inactive)
same,GI50,[51],23.5 µM (inactive)
same,GI50,[52],23 µM (inactive)
same,GI50,[53],14.9 µM (inactive)
same,GI50,[54],22.4 µM (inactive)
same,GI50,[55],28.4 µM (inactive)
COc1cc([C@H]2c3cc4c(cc3[C@H](NCc3ccc(F)cc3)C3COC(=O)[C@H]32)OCO4)cc(OC)c1O (stereo partly specified),GI50,[56],2.57 µM (inactive)
same,GI50,[1],1.3 µM (inactive)
same,GI50,[2],3.37 µM (inactive)
same,GI50,[3],2.64 µM (inactive)
same,GI50,[58],26.3 µM (inactive)
same,GI50,[4],1.13 µM (inactive)
same,GI50,[5],1.87 µM (inactive)
same,GI50,[6],2.25 µM (inactive)
same,GI50,[7],7.59 µM (inactive)
same,GI50,[8],2.44 µM (inactive)
same,GI50,[9],11.1 µM (inactive)
same,GI50,[10],10.5 µM (inactive)
same,GI50,[12],6.19 µM (inactive)
same,GI50,[13],37.6 µM (inactive)
same,GI50,[14],3.33 µM (inactive)
same,GI50,[15],1.84 µM (inactive)
same,GI50,[16],3.56 µM (inactive)
same,GI50,[17],7.03 µM (inactive)
same,GI50,[18],4.13 µM (inactive)
same,GI50,[19],15.4 µM (inactive)
same,GI50,[20],4.3 µM (inactive)
same,GI50,[21],8.04 µM (inactive)
same,GI50,[22],15.6 µM (inactive)
same,GI50,[57],0.815 µM (active)
same,GI50,[23],8.91 µM (inactive)
same,GI50,[24],11 µM (inactive)
same,GI50,[25],6.18 µM (inactive)
same,GI50,[26],4.36 µM (inactive)
same,GI50,[27],1.44 µM (inactive)
same,GI50,[28],2.32 µM (inactive)
same,GI50,[29],2.31 µM (inactive)
same,GI50,[30],1.09 µM (active)
same,GI50,[31],0.352 µM (active)
same,GI50,[33],3.19 µM (inactive)
same,GI50,[34],1.79 µM (inactive)
same,GI50,[35],11.2 µM (inactive)
same,GI50,[36],0.923 µM (active)
same,GI50,[37],16.3 µM (inactive)
same,GI50,[38],2.03 µM (inactive)
same,GI50,[39],0.344 µM (active)
same,GI50,[40],13.6 µM (inactive)
same,GI50,[41],2.19 µM (inactive)
same,GI50,[42],2.08 µM (inactive)
same,GI50,[43],2.22 µM (inactive)
same,GI50,[44],1.56 µM (inactive)
same,GI50,[45],14.8 µM (inactive)
same,GI50,[47],2.29 µM
same,GI50,[48],1.96 µM (inactive)
same,GI50,[49],2.87 µM (inactive)
same,GI50,[50],2.37 µM (inactive)
same,GI50,[51],24.7 µM (inactive)
same,GI50,[52],3.79 µM (inactive)
same,GI50,[53],2.43 µM (inactive)
same,GI50,[54],1.23 µM (inactive)
same,GI50,[55],7.59 µM (inactive)
